Laboratory results reported in patent US20260345547A1, “USE OF DIHYDROQUERCETIN IN TREATING OCULAR SURFACE DISEASES” (HE UNIVERSITY SCHOOL OF CLINICAL MEDICINE, priority 2022, published 2026).
“And” between values parts separate entries of the source, which are not always exact repeats. Equal values may be shown once.

What was measured:
[1] = system: human corneal epithelial (HCE) cells; test: MTS assay: survival rate of HCE cells treated with H2O2 (damage model); assay type: cell-based; details: 300 μM H2O2, 24 h, relative to normal cell group
Protocol: Human corneal epithelial cells were purchased from the American Type Culture Collection (ATCC). The cell medium used was high-sugar DMEM medium supplemented with 10% (V/V) fetal bovine serum, 100 U/mL penicillin, and 100 μg/mL gentamicin. The cells were cultured in an incubator containing 5% carbon dioxide at 37° C. Cells in the logarithmic growth phase were seeded into a 96-well plate at a density of 1.5×10^5 cells/mL, with 100 μL per well and 6 replicate wells per group. The cells were grouped into a normal cell group, a hydrogen peroxide model group, and intervention groups treated with dihydroquercetin at various concentrations. The assay was performed using an MTS kit (e.g., Promega), and absorbance was measured at 490 nm using a microplate reader. […]
Human corneal epithelial cells were purchased from the American Type Culture Collection (ATCC). […] To measure the colorimetric results, the absorbance value of each well was read at the wavelength of 490 nm using an enzyme-linked immunosorbent assay reader. The results were recorded, and a cell growth curve was plotted with time as the abscissa and absorbance value as the ordinate.
HCE cells were subcultured and seeded at 1.5×10^5 cells/mL, with 100 μL per well. […] To measure the colorimetric results, the absorbance value of each well was read at the wavelength of 490 nm using an enzyme-linked immunosorbent assay reader. […]

[2] = system: HCE cells (H2O2-induced oxidative damage); test: MTS assay: anti-oxidative damage effect on HCE cells with H2O2-induced damage; assay type: cell-based, human
Protocol: (§1) Human corneal epithelial cells were purchased from the American Type Culture Collection (ATCC). The cell medium used was high-sugar DMEM medium supplemented with 10% (V/V) fetal bovine serum, 100 U/mL penicillin, and 100 μg/mL gentamicin. The cells were cultured in an incubator containing 5% carbon dioxide at 37° C. Cells in the logarithmic growth phase were seeded into a 96-well plate at a density of 1.5×10^5 cells/mL, with 100 μL per well and 6 replicate wells per group. The cells were grouped into a normal cell group, a hydrogen peroxide model group, and intervention groups treated with dihydroquercetin at various concentrations. The assay was performed using an MTS kit (e.g., Promega), and absorbance was measured at 490 nm using a microplate reader.
(§2) Survival rate=survival rate of each group/survival rate of normal cell group×100%
Human corneal epithelial cells were purchased from the American Type Culture Collection (ATCC). The cell medium used was high-sugar DMEM medium supplemented with 10% (V/V) fetal bovine serum, 100 U/mL penicillin, and 100 μg/mL gentamicin. The cells were cultured in an incubator containing 5% carbon dioxide at 37° C. Cells in the logarithmic growth phase were seeded into a 96-well plate at a density of 1.5×10^5 cells/mL, with 100 μL per well and 6 replicate wells per group. After 24 h, the cells were treated with H2O2 or dihydroquercetin according to the experimental purpose. […] To measure the colorimetric results, the absorbance value of each well was read at the wavelength of 490 nm using an enzyme-linked immunosorbent assay reader. The results were recorded, and a cell growth curve was plotted with time as the abscissa and absorbance value as the ordinate.
The experiment included 8 groups: a normal control group, a H2O2 model group, and intervention groups treated with various concentrations of dihydroquercetin (0.1-200 μM)+H2O2. […] The survival rate of cells in each group was assessed by the MTS assay to evaluate the protective effect of dihydroquercetin against oxidative damage of HCE cells.

mouse model of dry eye [3] = test: Tear film breakup time in dry eye mice; assay type: in vivo, C57/BL6 mice; details: treatment groups (0.03% and 0.3%), ocular; day 14 of modeling; compared to model control group, P<0.05
Text: (§3) Out of 50 healthy 8-week-old female C57/BL6 mice, 30 were selected for the experiment. Five mice were randomly assigned to each group, resulting in a total of six groups: blank control group (N), model group (M), positive drug group (CsA), low concentration traditional Chinese medicine group (SL), medium concentration traditional Chinese medicine group (SM), and high concentration traditional Chinese medicine group (SH). During grouping, identification was marked on the mice's tails and cage cards, which included details such as the experiment name, experiment number, group designation, administration dosage, and administration schedule.
(§4) In this experiment, a mouse model of dry eye was established using an intelligent dry environment control system in combination with scopolamine injection. A two-step dehumidification method was used to control the humidity of the environment during the modeling process. Initially, a temperature-adjustable industrial dehumidifier was used to reduce the room humidity to 40%±5%. […]
The mice were restrained without anesthesia, and sodium fluorescein solution was instilled into their conjunctival sacs. […] The time until the appearance of a block spot due to tear film breakup was recorded. […] The data were analyzed statistically using GraphPad Prism 8.0 software. […]

[4] = system: corneal neovascularization model in rabbits; test: Corneal neovascularization after corneal alkali burn in rabbits; assay type: in vivo, New Zealand rabbits; details: 50 μL twice daily, ocular, 14 days after treatment, compared to model group; for corneal neovascularization area: P<0.01
Text: […] 3-month-old healthy New Zealand rabbits, half male and half female, were randomly assigned to six groups, with each group containing six rabbits. The groups were designated as blank control group (N), model control group (M), positive drug group (LEV), low concentration dihydroquercetin group (E1), high concentration dihydroquercetin group (E2) and solvent control group (R). Identification was marked on the rabbits' ears and cage cards, which included details such as the experiment name, experiment number, group designation, administration dosage, and administration schedule.
In this experiment, the corneal neovascularization model in rabbits was established using a chemical injury method. The rabbits were generally anesthetized with an intravenous injection of 1% pentobarbital sodium administered via the marginal ear vein. […] A 6 mm diameter filter paper was soaked in a 1 mol/L NaOH solution for 1 minute. The soaked filter paper was then applied to the center of the cornea for 30 seconds, after which it was removed. The ocular surface and conjunctival sac were subsequently rinsed with physiological saline for 1 minute. Following the modeling procedure, levofloxacin was applied as eye drops to the modeled eye to prevent postoperative infection.
The route of administration was ocular, and treatment commenced the day before modeling. No drug was administered to the blank control group or model control group. In the positive drug group, 50 μL of levofloxacin was applied to the conjunctival sac. In the low concentration group, 50 μL of a 0.03% dihydroquercetin solution was applied, while in the high concentration group, 50 μL of a 0.3% dihydroquercetin solution was applied. All treatments were administered twice daily at 9:00 a.m. and 3:00 p.m.
Fourteen days after treatment, ocular surface inflammation and neovascularization were assessed in each experimental group. The area of neovascularization was imaged, recorded, and subsequently quantified. Data were analyzed statistically using GraphPad Prism 8.0 software.

mouse model of dry eye [5] = test: Sodium fluorescein staining of cornea (corneal epithelial damage) in dry eye mice; assay type: in vivo, C57/BL6 mice; details: day 14 of modeling
Text: as §3
In this experiment, a mouse model of dry eye was established using an intelligent dry environment control system in combination with scopolamine injection. A two-step dehumidification method was used to control the humidity of the environment during the modeling process. […]
The corneal morphology of experimental mice in each group was observed before modeling and 14 days after modeling. […] The sodium fluorescein-stained corneas of the mice were then illuminated with cobalt blue light, observed, imaged and recorded with a slit lamp. […] Sodium fluorescein residues on the corneal surface was scored and recorded. The data were analyzed statistically using GraphPad Prism 8.0 software.

HCE cells = test: MTS assay: proliferative and toxic effects of dihydroquercetin on HCE cells; assay type: cell-based, human; details: 24 h; for cell viability of HCE cells: compared to control group
Protocol: as §1, §2
Human corneal epithelial cells were purchased from the American Type Culture Collection (ATCC). The cell medium used was high-sugar DMEM medium supplemented with 10% (V/V) fetal bovine serum, 100 U/mL penicillin, and 100 μg/mL gentamicin. The cells were cultured in an incubator containing 5% carbon dioxide at 37° C. Cells in the logarithmic growth phase were seeded into a 96-well plate at a density of 1.5×10^5 cells/mL, with 100 μL per well and 6 replicate wells per group. After 24 h, the cells were treated with H2O2 or dihydroquercetin according to the experimental purpose. For color development, 20 μL of MTS solution was added to each well, and the cells were incubated for another 2-4 h. To measure the colorimetric results, the absorbance value of each well was read at the wavelength of 490 nm using an enzyme-linked immunosorbent assay reader. The results were recorded, and a cell growth curve was plotted with time as the abscissa and absorbance value as the ordinate.
Various concentrations of dihydroquercetin (0.01-600 μM) were applied to HCE cells, and 6 replicate wells were set for each group to ensure the reliability and accuracy of the experimental data. The proliferative effect of the drug on the cells was then assessed.

mouse model of dry eye [6] = test: Tear secretion amount (phenol red cotton thread) in dry eye mice; assay type: in vivo, C57/BL6 mice; details: 5 μL drops twice daily, ocular, day 14 of modeling, compared to model control group, P<0.001
Text: as §3, §4
The mice were restrained without anesthesia. […] The thread was then placed on a printable ruler, and the length of the red-stained portion was measured and recorded. The data were analyzed statistically using GraphPad Prism 8.0 software. […]

## OO [H2O2, hydrogen peroxide, reference compound]
[1]
  viability at 300 µM: 49%
[2]; 300 μM H2O2, compared to control group, P<0.001
  cell survival rate, H2O2 model group: lower

## O=C1c2c(O)cc(O)cc2O[C@H](c2ccc(O)c(O)c2)[C@H]1O [dihydroquercetin]
Mouse model of dry eye [3]
  tear film breakup time: increased significantly
[4]; high concentration, 0.3%
  new blood vessels (slit lamp morphology): fewer new blood vessels
  corneal neovascularization area: smaller
[4]; low concentration, 0.03%
  new blood vessels (slit lamp morphology): fewer new blood vessels
  corneal neovascularization area: smaller
Mouse model of dry eye [5]; compared to model control group
  sodium fluorescein staining of cornea (morphology): significant reduction in staining
Mouse model of dry eye [5]; treatment groups (0.03% and 0.3%), ocular, compared to model group, P<0.001
  corneal epithelial damage score, sodium fluorescein staining: significant reduction in damage
HCE cells; 50 μM
  cell viability of HCE cells: significantly higher
HCE cells; 100 μM
  cell viability of HCE cells: significantly higher
HCE cells; 200 μM
  cell viability of HCE cells: significantly higher
HCE cells; 600 μM
  cell viability of HCE cells: significantly reduced
HCE cells; MTS assay
  concentration that has a proliferation effect on HCE cells: 25 to 200 µM and 50 to 200 µM
  concentration with toxic effect on HCE cells: 600 µM
[2]; 300 μM H2O2, MTS assay
  concentration offering protection against H2O2-induced oxidative stress damage in HCE cells: 25 to 200 µM
[2]; 25-200 μM with 300 μM H2O2, compared to H2O2 model group, P<0.01
  cell survival rate, dihydroquercetin + H2O2: higher
Mouse model of dry eye [6]; high concentration group (E2), 0.3%
  tear secretion: significantly increased
Mouse model of dry eye [6]; low concentration group (E1), 0.03%
  tear secretion: significantly increased

## C[C@H]1COc2c(N3CCN(C)CC3)c(F)cc3c(=O)c(C(=O)O)cn1c23 [levofloxacin, reference compound]
[4]
  new blood vessels (slit lamp morphology): fewer new blood vessels
  corneal neovascularization area: smaller
